From patent US20250090699A1, “FAP TARGETING CYCLIC PEPTIDES AND CONJUGATES THEREOF” (Novartis AG, priority 2023, published 2025)
pIC50, pKd: −log10 of the molar value. Starred links: 1 amine or outer side, 2 acyl side, 3 side chain; linkers in the order of their positions; H or OH if unused. Non-standard residues stand in square brackets, D forms with d. Residues, ends and D or L forms follow the SMILES beside them. *: point of attachment. F(4amPEG2NHDOTA-Lu) = lutetium complex of (S)-2,2',2''-(10-(1-(4-(2-amino-2-carboxyethyl)phenyl)-3,12-dioxo-5,8-dioxa-2,11-diazatridecan-13-yl)-1,4,7,10-tetraazacyclododecane-1,4,7-triyl)triacetic acid (Phe with 4-aminomethyl-PEG2-DOTA-Lu), O=C([O-])CN1CCN(CC(=O)[O-])CCN(CC(=O)NCCOCCOCC(=O)NCc2ccc(C[C@H](N[*:1])C(=O)[*:2])cc2)CCN(CC(=O)[O-])CC1.[Lu+3]; F4(amMeGlyDOTALu) = lutetium complex of (S)-2,2',2''-(10-(2-((2-((4-(2-amino-2-carboxyethyl)benzyl)amino)-2-oxoethyl)(methyl)amino)-2-oxoethyl)-1,4,7,10-tetraazacyclododecane-1,4,7-triyl)triacetic acid (Phe with 4-aminomethyl-N-methyl-Gly-D, CN(CC(=O)NCc1ccc(C[C@H](N[*:1])C(=O)[*:2])cc1)C(=O)CN1CCN(CC(=O)[O-])CCN(CC(=O)[O-])CCN(CC(=O)[O-])CC1.[Lu+3]; COpipzaa = 4-(carboxymethyl)piperazine-1-carbonyl, O=C(O)CN1CCN(C(=O)*)CC1; AEF = NCCOc1ccc(C[C@H](N)C(=O)O)cc1; NMeF = CN[C@@H](Cc1ccccc1)C(=O)O; Ahp(2) = CCCCC[C@H](N)C(=O)O

Experiments:
[1] = molecular target: T1, mouse FAP (Mus musculus, UniProt P97321); assay: Surface plasmon resonance (SPR) for peptide affinity, mouse FAP; format: binding
T1 construct: biotinylated His, Avi tag, mouse FAP (26-761, FAP-M82Q5); His; Avi tag (biotinylated); purchased AcroBiosystems FAP-M82Q5
T1 sequence (P97321 26-761): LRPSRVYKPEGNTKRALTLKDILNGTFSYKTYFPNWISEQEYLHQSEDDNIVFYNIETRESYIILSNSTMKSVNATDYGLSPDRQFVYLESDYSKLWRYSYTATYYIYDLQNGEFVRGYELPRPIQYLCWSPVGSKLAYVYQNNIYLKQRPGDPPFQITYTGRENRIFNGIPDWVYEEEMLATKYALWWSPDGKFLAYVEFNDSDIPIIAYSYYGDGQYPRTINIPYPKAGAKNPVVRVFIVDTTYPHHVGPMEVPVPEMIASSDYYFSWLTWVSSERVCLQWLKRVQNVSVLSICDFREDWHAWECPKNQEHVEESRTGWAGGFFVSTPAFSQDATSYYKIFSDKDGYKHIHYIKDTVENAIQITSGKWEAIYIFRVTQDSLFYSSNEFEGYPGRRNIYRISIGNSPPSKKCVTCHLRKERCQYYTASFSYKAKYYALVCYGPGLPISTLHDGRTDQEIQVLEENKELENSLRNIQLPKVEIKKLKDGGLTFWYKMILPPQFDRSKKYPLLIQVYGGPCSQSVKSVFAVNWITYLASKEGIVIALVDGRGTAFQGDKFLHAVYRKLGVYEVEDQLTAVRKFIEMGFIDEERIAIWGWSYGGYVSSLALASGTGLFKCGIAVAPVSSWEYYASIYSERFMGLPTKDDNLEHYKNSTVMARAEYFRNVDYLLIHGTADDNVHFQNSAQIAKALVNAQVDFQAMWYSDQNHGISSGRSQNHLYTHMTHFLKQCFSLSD
Summary of the method: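 KD values come from a 1:1 kinetic fit of single-cycle SPR data: 8 peptide concentrations, 25 °C, 30 μL/min, HEPES-buffered saline pH 7.6 with 2% DMSO. Targets were His/Avi-tagged human (26-760) or mouse (26-761) FAP, amine-coupled to CM5 or held on a CAPture chip.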

[2] = molecular target: T2, human FAP (Homo sapiens, UniProt Q12884); assay: Enzymatic FAP competition assay (Z-Gly-Pro-AMC fluorescence), human FAP; format: biochemical; details: read-out: h. FAP, Enz., IC50
T2 construct: the biotinylated His, Avi tag, human FAP (26-760, FAP-H82Q6); His; Avi tag (biotinylated); purchased AcroBiosystems FAP-H82Q6
T2 sequence (Q12884 26-760): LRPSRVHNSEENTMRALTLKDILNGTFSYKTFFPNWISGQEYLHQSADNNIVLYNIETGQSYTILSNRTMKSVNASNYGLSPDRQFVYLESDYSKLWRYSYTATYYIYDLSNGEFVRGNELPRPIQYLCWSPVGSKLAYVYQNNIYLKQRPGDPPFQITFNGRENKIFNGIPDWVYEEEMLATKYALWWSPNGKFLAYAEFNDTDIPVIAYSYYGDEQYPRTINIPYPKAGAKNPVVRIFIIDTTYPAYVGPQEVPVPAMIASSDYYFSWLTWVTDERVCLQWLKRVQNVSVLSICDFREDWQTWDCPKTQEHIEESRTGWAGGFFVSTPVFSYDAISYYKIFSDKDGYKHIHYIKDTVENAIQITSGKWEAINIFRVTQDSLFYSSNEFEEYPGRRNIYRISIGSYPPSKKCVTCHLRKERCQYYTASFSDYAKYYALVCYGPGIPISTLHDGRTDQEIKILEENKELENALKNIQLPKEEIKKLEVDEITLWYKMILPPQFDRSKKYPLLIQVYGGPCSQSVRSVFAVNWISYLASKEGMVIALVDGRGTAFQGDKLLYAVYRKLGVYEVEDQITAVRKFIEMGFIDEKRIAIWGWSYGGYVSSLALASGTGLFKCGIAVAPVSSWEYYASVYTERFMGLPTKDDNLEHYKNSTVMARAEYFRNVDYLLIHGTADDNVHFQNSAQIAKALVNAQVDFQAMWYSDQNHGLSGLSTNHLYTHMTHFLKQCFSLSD
Summary of the method: (§1)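 IC50 values come from curve fitting of duplicate % inhibition data on AMC fluorescence (ex 380, em 460 nm) after 4 h at 22-24° C with 50 μM Z-Gly-Pro-AMC. Beforehand, peptides up to 1 μM (14 levels) sat 24 h with 0.01 nM human (26-760) or mouse (26-761) tagged FAP in phosphate buffer pH 7.5, NaCl, Tween20, 1% DMSO.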

[3] = molecular target: T2, human FAP; assay: Surface plasmon resonance (SPR) for peptide affinity, human FAP; format: binding; details: read-out: h. FAP, SPR, KD
Protocol: Peptide affinities (KD) were determined by SPR using a Biacore™ 8K device (Cytiva) towards the following proteins: biotinylated His, Avi tag, human FAP (26-760, FAP-H82Q6), biotinylated His, Avi tag, mouse FAP (26-761, FAP-M82Q5), His tag, human DPP4 (34-766, DP4-H82E3), all purchased from AcroBiosystems and His tag, mouse DPP4 (29-760, 954-SE) from R&D Systems. The FAP proteins and their homologous were diluted to a concentration of 2 μg/mL into acetate buffer pH 5.5, then immobilized onto a CM5 sensorchip (Cytiva, BR-1005-30) to reach a response around 2000 R U. The running buffer HBS-EP+pH 7.6 (20× from Teknova CAT. No: H8022) contained 10 mM HEPES pH 7.6, 150 mM NaCl, 3 mM EDTA, 0.05% Tween20 and 2% DMSO. Experiments were carried out at 25° C. using a flow rate of 30 μL/min. Compounds were tested in single cycle kinetic mode at 8 different concentrations. Curve fitting was performed using the Biacore™ 8K evaluation software. The sensorgrams were fitted by applying a 1:1 binding model to calculate kinetic rate constants and equilibrium dissociation constants (KD).
For this assay, the setup had the same conditions (flow rate, running buffer, peptide dilution) as described above for the CM5 method. The oligo CAP reagent obtained in the CAPture Kit (Ref. 28920234) was 1/5 diluted into running buffer and used with a contact time of 300 s at a flow rate of 2 μL/min. The human and mouse FAP constructs described above were used (from AcroBiosystems or produced in house). The FAP proteins were diluted to a concentration of 2 μg/mL into acetate pH 5.5, 0.05% Tween20 and used with a contact time of 600 s at a flow rate of 10 μL/min. The peptides were tested with an association time of 280 s followed by a dissociation time of 3000 s at a flow rate of 30 μL/min. The regeneration was done using the regeneration solution (8 M guanidine-HCl, 1 M NaOH) as obtained with a contact time of 270 s at a flow rate of 10 μL/min. […] The compounds marked with an asterisk were tested against human and mouse DDP4.

[4] = molecular target: T1, mouse FAP; assay: Enzymatic FAP competition assay (Z-Gly-Pro-AMC fluorescence), mouse FAP; format: biochemical; details: read-out: m. FAP, Enz., IC50
Summary of the method: as §1

pKd [1]	pIC50 [2]	pKd [3]	pIC50 [4]	Compound
9.26	9.62	9.57	8.92	CCCCC[C@@H]1NC(=O)[C@H](Cc2ccc(OCCN)cc2)NC(=O)[C@H](Cc2ccccc2)N(C)C(=O)CNC(=O)[C@@H]2CCCN2C(=O)[C@H]2CCCN2C(=O)[C@H](CC(=O)O)NC(=O)[C@H](Cc2ccc(O)cc2)NC(=O)CNC(=O)[C@H](Cc2c[nH]c3ccccc23)NC1=O [Example A32, Pro-Gly-NMePhe-F(4OEtNH2)-Ahp-Trp-Gly-Tyr-Asp-D-Pro] (cyclo(G[NMeF][AEF][Ahp(2)]WGYD[dP]P))
11.22	11.15	11.40	10.92	Gly-Gly-NMePhe-F4(amMeGlyDOTALu)-Ahp-Trp-Gly-Tyr-Asp-D-Pro (cyclo(GG[NMeF][F4(amMeGlyDOTALu)][Ahp(2)]WGYD[dP]); also: Lu complex) [Example C8]
10.96	11.30	> 11.30	10.96	CCCCC[C@@H]1NC(=O)[C@H](Cc2ccc(O)cc2)NC(=O)[C@H](Cc2ccccc2)N(C)C(=O)CNC(=O)CNC(=O)[C@H]2CCCN2C(=O)[C@H](CC(=O)O)NC(=O)[C@H](Cc2ccc(OC)cc2)NC(=O)CNC(=O)[C@H](Cc2c[nH]c3ccccc23)NC1=O [Example A13, Gly-Gly-NMePhe-Tyr-Ahp-Trp-Gly-F(4OMe)-Asp-D-Pro] (cyclo([Ahp(2)]WGY(Me)D[dP]GG[NMeF]Y))
10.62	11.40	> 10.96	10.96	Gly-Gly-NMePhe-F(4amPEG2NHDOTA-Lu)-Ahp-Trp-Gly-K(COpipzaa)-Asp-D-Pro (cyclo(GG[NMeF][F(4amPEG2NHDOTA-Lu)][Ahp(2)]WGK(COpipzaa)D[dP]); also: Lu complex) [Example C13]
